A short description of the first data set: in vitro. To be noted: human, hela cells, % viability.
Consider `Cc1cc2c(cc1C)NC(CC(=O)Nc1cccc(Br)c1)C(=O)N2` (stereo not shown) [CBK269548], for which the viability at 28.5 h, 10 µM came to 73.3%.
Regarding `Cn1c(CNc2ccccc2C(=O)O)c(C#N)c2ccccc21` [CBK286977], the viability at 28.5 h, 10 µM amounted to 88.7%.
Still for that read-out and setting: next, `Cc1ccccc1CN1CCN(CC(=O)Nc2ccccc2C(N)=O)CC1` [CBK270296]: 94.1%; `CC1CCCN(C(=O)CCn2c(C(F)F)cc3cccnc32)C1` (stereo not shown) [CBK285025]: 97.9%.
Regarding `CS(=O)(=O)N1CCc2cc(-c3cc4ccccn4c3)ccc21` [CBK285256], the viability at 28.5 h, 10 µM is 107%.
For the compound `CCCc1cc(CNC(=O)C(C)n2ccnc2)on1` (stereo not shown) [CBK282046], the viability at 28.5 h, 10 µM came out at 88.3%.
The same measure, in the same setting: next, `CCNc1cc(-c2cccc(N(C)C)c2)ncn1` [CBK090878]: 97.8%; `CN(C)C(=O)CN1C(=O)[C@H]2CCCN2C(=O)c2ccccc21` [CBK282854]: 91.2%.
Still for that read-out and setting: then `CCN(CC)S(=O)(=O)c1ccc(C(=O)NCc2ccc(OC)cc2)cc1` [CBK305844], with 71.6%.
On the same count and under the same terms, then `COc1ccc(NC(=O)CS(=O)(=O)Cc2ccccc2)c([N+](=O)[O-])c1` [CBK266748], with 93.1%; and `O=C(Cc1ccc(-c2ccccc2)cc1)N1CCc2nc3ccccc3c(=O)n2CC1` [CBK286312], with 97.2%; and `Cn1cnc2cc(NCc3cc(-c4ccc(F)cc4)c[nH]c3=O)ccc21` [CBK284693], with 50.7%.
Turning to `O=C(NCC1COc2ccccc2O1)N1CCCCC1CO` (stereo not shown) [CBK156162], the viability at 28.5 h, 10 µM came to 103%.
In the case of `OC1(c2ccccn2)CCN(CCc2ccccc2)CC1` [CBK282904], the viability at 28.5 h, 10 µM worked out at 87.2%.
On the same count and under the same terms, then `Cc1n[nH]c(C)c1Sc1ccccc1/N=C/c1ccccc1O` [CBK262068], with 93%; and `OC1CCCCC1C1(NC(=S)Nc2ccccc2)CCCCC1` (stereo not shown) [CBK026324], with 97.9%.
As to `Nc1cccc(-c2nc(NC(=O)Cc3ccccc3)cnc2-c2ccc(F)cc2)c1` [CBK037550], the viability at 28.5 h, 10 µM was 91.3%.
Take `CC[C@H](Cn1c(=O)oc2ccccc21)NC(=O)c1cccs1` [CBK284540]: the viability at 28.5 h, 10 µM was determined as 80.7%.
Same read-out and setting: then `Cc1ccc(OC(C)c2nc(-c3nonc3N)no2)cc1C` (stereo not shown) [CBK025698], with 92.4%; and `Cc1nn(C)c(C)c1C1CCCN1CC(=O)NCc1ccccn1` (stereo not shown) [CBK305501], with 94.9%; and `CCOC(=O)/C(=N/Nc1cccc(C)c1)c1csc(N)n1` [CBK261059], with 97.9%.
On the same count and under the same terms, next, `Nc1ncc(-c2cc(C(F)(F)F)cc(C(F)(F)F)c2)nc1NCCCO` [CBK063546]: 105%.
Turning to `O=C(CC1CCN(Cc2cccc(C(F)(F)F)c2)CC1)NCc1ccc2[nH]c(=O)[nH]c2c1` [CBK285954], the viability at 28.5 h, 10 µM was determined as 97.8%.
`CCN(CCO)c1ccc(Nc2cc(-c3cccc([N+](=O)[O-])c3)ncn2)cc1` [CBK091002]: the viability at 28.5 h, 10 µM came out at 92.2%.
With `NC(CC(=O)O)c1cccc([N+](=O)[O-])c1` (stereo not shown) [CBK262903C], the viability at 28.5 h, 10 µM turned out to be 96.9%.
On the same count and under the same terms, then `CCNc1cc(-c2cncc(OC)c2)ncn1` [CBK090881], with 101%; and `O=C(CN1CCCc2ccccc21)c1ccsc1` [CBK138333], with 91.5%; and `CC(=O)Nc1cccc(C(=O)OCC(=O)N2CCCC2)c1` [CBK306395], with 91.6%.
Still for that read-out and setting: then `CCc1nc2ccc(NC(=O)CCCc3ccncc3)cc2[nH]1` [CBK283268], with 111%.
Same read-out and setting: then `COC(=O)c1ccc(N2C(=O)CC(N3CCC(n4c(=O)[nH]c5ccccc54)CC3)C2=O)cc1` (stereo not shown) [CBK268714], with 94.6%.
Regarding `O=C(/C=C\c1cccs1)NC(=S)Nc1ccc([N+](=O)[O-])cc1O` [CBK261231], the viability at 28.5 h, 10 µM turned out to be 89.4%.
Regarding `Cn1cc(CCCC(=O)NCCC2=CCCCC2)c2ccccc21` [CBK061756], the viability at 28.5 h, 10 µM was 99.2%.
`CC(C)(CO)CNc1cncc(-c2cccc(Cl)c2)n1` [CBK037862]: the viability at 28.5 h, 10 µM amounted to 102%.
Still for that read-out and setting: then `COC(=O)[C@@H]1CN(C(=O)c2cccs2)C[C@H]1c1ccc(OC)cc1` [CBK283725], with 87.1%; and `C=C(C)Cn1c(SCCC(=O)OC)nc2sc3c(c2c1=O)CC(C)(C)OC3` [CBK026634], with 59.9%.
For the compound `O=C(CCS(=O)(=O)c1ccccc1)Nc1cncc(OC2CCNCC2)n1` [CBK028438T], the viability at 28.5 h, 10 µM is 94.1%.
Regarding `CCCc1cc(=O)[nH]c2nnc(SCC(=O)NC)n12` [CBK287685], the viability at 28.5 h, 10 µM was found to be 95.3%.
Still for that read-out and setting: then `COCC1CCCN(Cc2cn(C)nc2C(C)(C)C)C1` (stereo not shown) [CBK304818], with 108%.
In the case of `CCOC(=O)N1CCN(C(C(=O)O)c2c[nH]c3cc(OCc4ccccc4)ccc23)CC1` (stereo not shown) [CBK286689], the viability at 28.5 h, 10 µM worked out at 97%.
On the same count and under the same terms, next, `Cc1nn(C)c(N2CCNCC2)c1NC(=O)c1ccccc1` [CBK050257T]: 99%.
The same measure, in the same setting: then `FC(F)(F)c1cccc(OCCN2CCOCC2)c1` [CBK269669C], with 96.8%.
Same read-out and setting: next, `Cn1c(=O)n(C)c2cc(NC3=NS(=O)(=O)c4ccccc43)ccc21` [CBK270210]: 91.9%; `Cc1ccc(S(=O)(=O)Nc2ccc(Nc3cc(-c4ccc(CNC(=O)OC(C)(C)C)cc4)ncn3)cc2)cc1` [CBK090967]: 96.8%.
For `CC(=O)Nc1ccc(NC(=O)CSCc2ccc(Cl)cc2Cl)cc1` [CBK131696], the viability at 28.5 h, 10 µM was 96.4%.
As for `CCN(CC)c1ccc(NC(=O)COc2ccccc2)cc1` [CBK096048], the viability at 28.5 h, 10 µM came out at 91.9%.
Same read-out and setting: then `CCn1c(=O)n(CC(C)(C)O)c2cc(S(=O)(=O)N(C)C)ccc21` [CBK304893], with 92.8%.
As to `CC(C)(C)c1ccc(-c2nc(O)c(CC(=O)O)s2)cc1` [CBK067734], the viability at 28.5 h, 10 µM is 99.6%.
`COCCNC(=O)c1c(NC(=O)c2ccccc2C)sc2c1CCCC2` [CBK091645]: the viability at 28.5 h, 10 µM is 83.9%.
Consider `Cc1nnc(-c2cc(CCC(C)C)n(-c3cccc(C(=O)N4CCCCC4)c3)n2)o1` [CBK114689], for which the viability at 28.5 h, 10 µM is 95.4%.
Take `O=C(CN1C(=O)[C@@H]2CCCN2c2ncccc21)NC1CCCCC1` [CBK286204]: the viability at 28.5 h, 10 µM is 116%.
The same measure, in the same setting: next, `COc1ccc(-c2cc(=O)[nH]c(SCC(=O)Nc3ccc(C)cc3)n2)cc1` [CBK091867]: 95.8%; `CN(C)S(=O)(=O)c1ccc(C(=O)C2=C(O)C(=O)N(Cc3cccnc3)C2c2ccncc2)cc1` (stereo not shown) [CBK264714]: 95.4%; `CC(NCC(=O)NC1(C#N)CCCCC1)C(C)n1cccn1` (stereo not shown) [CBK305129]: 91.4%.
The same measure, in the same setting: next, `CSc1nnc(Cc2nnc(SC)n2-c2ccccc2)n1-c1ccccc1` [CBK267145]: 105%; `Nc1cccc(-c2nccnc2N2CCCC2CO)c1` (stereo not shown) [CBK036786]: 102%; `COc1cc(/C=N/Nc2nc(Nc3ccccc3)nc(Nc3ccccc3)n2)ccc1O` [CBK262584]: 84.9%.

Still in this data set, the particulars now being: human, hela cells, % viability, bulk resorufin, single well.
In the case of `Oc1cccc(CN2CCN(c3cccc(Cl)c3)CC2)c1` [CBK261543], the viability at 28.5 h, 10 µM is 90.1%.
Same read-out and setting: next, `Cc1cc(/C=C2\C(=O)NC(=O)N(C)C2=O)c(C)n1-c1ccc(Oc2ccc([N+](=O)[O-])cn2)cc1` [CBK264294]: 100%.

For the origin of these results see paper PMC12040169 (PLOS Biology, 2025).
